Test results: the CheMixHub ionic liquid set
“And” between values parts separate entries of the source, which are not always exact repeats. Equal entries are not always repeated.

Assay: xn = mol fraction of the nth substance listed

CCCC[N+](CCCC)(CCCC)CCCC.[Cl-] + NCCCO
viscosity [mPa·s], 101.3 kPa
Conditions | 293.15 K | 298.15 K | 303.15 K | 308.15 K | 313.15 K | 318.15 K | 323.15 K | 328.15 K | 333.15 K
x2 = 0.8 | 101.4 | 77.4 | 57.8 | 44.6 | 36.2 | 28.9 | 23.4 | 19.4 | 16.1
x2 = 0.8571 | 70.7 | 53.9 | 41.7 | 32.8 | 26 | 21.1 | 17.3 | 14.2 | 12
x2 = 0.8889 | 60.2 | 46.1 | 35.7 | 28 | 22.5 | 18.3 | 15 | 12.5 | 10.7

CC[n+]1ccn(C)c1.[Cl-] + NCCNCCN + OCCO
viscosity [mPa·s], 100 kPa
Conditions | 293 K | 303 K | 313 K | 323 K | 333 K | 343 K | 353 K
x2 = 0.25, x3 = 0.25 | 64.8 | 43.2 | 29.5 | 20.6 | 14.7 | 10.7 | 8
x2 = 0.333, x3 = 0.333 | 144 | 91.9 | 60.4 | 40.8 | 28.2 | 19.9 | 14.3
x2 = 0.4, x3 = 0.2 | 106 | 68.1 | 44.7 | 30.2 | 20.9 | 14.7 | 10.6
x2 = 0.429, x3 = 0.143 | 103 | 66.5 | 44.2 | 30.1 | 21 | 15 | 10.9
x2 = 0.5, x3 = 0.25 | 124 | 80.8 | 53.9 | 36.9 | 25.8 | 18.5 | 13.4

CCCC[N+](CCCC)(CCCC)CCCC.[Cl-] + N[C@@H](CO)C(=O)O
101 kPa
Conditions | electrical conductivity, 313.15 K [S/m] | electrical conductivity, 323.15 K [S/m] | electrical conductivity, 333.15 K [S/m] | electrical conductivity, 343.15 K [S/m] | electrical conductivity, 353.15 K [S/m] | viscosity, 313.15 K [mPa·s] | viscosity, 323.15 K [mPa·s] | viscosity, 333.15 K [mPa·s] | viscosity, 343.15 K [mPa·s] | viscosity, 353.15 K [mPa·s]
x2 = 0.09091 | 0.024 | 0.035 | 0.06 | 0.09 | 0.13 | 1110 | 490 | 260 | 141 | 86
x2 = 0.1 | 0.0298 | 0.0451 | 0.0631 | 0.093 | 0.136 | 1220 | 600 | 297 | 158 | 97
x2 = 0.1111 | 0.0102 | 0.0181 | 0.0425 | 0.0933 | 0.136 | 1000 | 480 | 237 | 135 | 83

CCCC[n+]1ccn(C)c1.[Br-] + N[C@@H](CO)C(=O)O + O
viscosity [mPa·s], 101.3 kPa
Conditions | 293.15 K | 298.15 K | 303.15 K | 308.15 K | 313.15 K
x2 = 0, x1 = 0.0007203 | – | – | – | – | 0.673
x2 = 0.0003632, x1 = 0.00072 | 1.028 | 0.917 | 0.824 | 0.747 | 0.681
x2 = 0.0003661, x1 = 0.001439 | 1.051 | 0.94 | 0.847 | 0.77 | 0.704
x2 = 0.0007261, x1 = 0.0007198 | 1.033 | 0.922 | 0.829 | 0.751 | 0.684
x2 = 0.0007318, x1 = 0.001438 | 1.056 | 0.945 | 0.852 | 0.773 | 0.707
x2 = 0.001089, x1 = 0.0007195 | 1.037 | 0.927 | 0.833 | 0.755 | 0.688
x2 = 0.001097, x1 = 0.001438 | 1.061 | 0.95 | 0.856 | 0.778 | 0.711
x2 = 0.001451, x1 = 0.0007192 | 1.043 | 0.931 | 0.838 | 0.759 | 0.693
x2 = 0.001463, x1 = 0.001437 | 1.067 | 0.954 | 0.861 | 0.782 | 0.716
x2 = 0.001808, x1 = 0.001437 | 1.072 | 0.959 | 0.865 | 0.787 | 0.72
x2 = 0.001813, x1 = 0.000719 | 1.047 | 0.936 | 0.842 | 0.764 | 0.697
x2 = 0.002175, x1 = 0.0007187 | 1.053 | 0.941 | 0.847 | 0.768 | 0.702
x2 = 0.002192, x1 = 0.001436 | 1.076 | 0.963 | 0.87 | 0.791 | 0.725
x2 = 0.002537, x1 = 0.0007185 | 1.057 | 0.946 | 0.851 | 0.773 | 0.706
x2 = 0.002557, x1 = 0.001436 | 1.082 | 0.968 | 0.874 | 0.796 | 0.729

CCCC[n+]1ccn(C)c1.[Br-] + N[C@@H](Cc1ccccc1)C(=O)O + O
viscosity [mPa·s], 101.3 kPa
Conditions | 293.15 K | 298.15 K | 303.15 K | 308.15 K | 313.15 K
x2 = 0, x1 = 0.0007203 | – | – | – | – | 0.67
x2 = 0.0003641, x1 = 0.00072 | 1 | 0.97 | 0.88 | 0.77 | 0.68
x2 = 0.0003648, x1 = 0.001439 | 0.99 | 0.9 | 0.8 | 0.66 | 0.59
x2 = 0.0007259, x1 = 0.0007198 | 1.02 | 0.98 | 0.89 | 0.78 | 0.69
x2 = 0.0007309, x1 = 0.001438 | 1 | 0.91 | 0.81 | 0.68 | 0.6
x2 = 0.001089, x1 = 0.0007195 | 1.03 | 0.99 | 0.91 | 0.8 | 0.7
x2 = 0.001097, x1 = 0.001438 | 1.02 | 0.92 | 0.82 | 0.69 | 0.61
x2 = 0.00145, x1 = 0.0007192 | 1.04 | 1 | 0.92 | 0.81 | 0.72
x2 = 0.001463, x1 = 0.001437 | 1.03 | 0.93 | 0.83 | 0.7 | 0.63
x2 = 0.001814, x1 = 0.000719 | 1.05 | 1.02 | 0.93 | 0.82 | 0.73
x2 = 0.001827, x1 = 0.001437 | 1.04 | 0.95 | 0.85 | 0.71 | 0.64
x2 = 0.002174, x1 = 0.0007187 | 1.07 | 1.03 | 0.95 | 0.84 | 0.74
x2 = 0.002193, x1 = 0.001436 | 1.06 | 0.96 | 0.86 | 0.73 | 0.65
x2 = 0.002537, x1 = 0.0007185 | 1.08 | 1.04 | 0.96 | 0.85 | 0.76
x2 = 0.002556, x1 = 0.001436 | 1.07 | 0.97 | 0.87 | 0.74 | 0.67

CCCC[NH3+].O=[N+]([O-])[O-] + O
Conditions | viscosity
278.15 K, 101.33 kPa, x2 = 0.435 | 46.7 mPa·s
283.15 K, 101.33 kPa, x2 = 0.435 | 37.92 mPa·s and 48.9 mPa·s
288.15 K, 101.33 kPa, x2 = 0.435 | 31.29 mPa·s and 40.44 mPa·s
293.15 K, 101.33 kPa, x2 = 0.435 | 26.16 mPa·s and 33.68 mPa·s
298 K, 101 kPa, x2 = 0 | 108.5 mPa·s
298 K, 101 kPa, x2 = 0.294 | 33.93 mPa·s
298 K, 101 kPa, x2 = 0.801 | 3.93 mPa·s
298 K, 101 kPa, x2 = 0.9 | 2.18 mPa·s
298.15 K, 101.33 kPa, x2 = 0.435 | 22.32 mPa·s and 28.34 mPa·s
303.15 K, 101.33 kPa, x2 = 0.435 | 18.92 mPa·s and 23.98 mPa·s
308.15 K, 101.33 kPa, x2 = 0.435 | 16.33 mPa·s and 20.7 mPa·s
313.15 K, 101.33 kPa, x2 = 0.435 | 14.22 mPa·s and 17.85 mPa·s
318.15 K, 101.33 kPa, x2 = 0.435 | 12.47 mPa·s and 16.84 mPa·s
323.15 K, 101.33 kPa, x2 = 0.435 | 11.02 mPa·s and 13.73 mPa·s
328.15 K, 101.33 kPa, x2 = 0.435 | 9.79 mPa·s and 12.73 mPa·s
333.15 K, 101.33 kPa, x2 = 0.435 | 8.76 mPa·s and 10.31 mPa·s
338.15 K, 101.33 kPa, x2 = 0.435 | 7.87 mPa·s and 9.34 mPa·s

CCOCC[n+]1ccn(C)c1.O=S(=O)([N-]S(=O)(=O)C(F)(F)F)C(F)(F)F + O
101 kPa, x1 = 0.8424
Conditions | viscosity [mPa·s]
283 K | 68.1
298.1 K | 34

CC[n+]1ccn(C)c1.[Cl-] + O
viscosity [mPa·s], 100 kPa
Conditions | 278.15 K | 283.15 K | 288.15 K | 293.15 K | 298.15 K | 303.15 K | 308.15 K | 313.15 K | 373 K
x1 = 9.063e-05 | 1.528 | 1.312 | 1.141 | 1.004 | 0.892 | 0.799 | 0.72 | 0.653 | –
x1 = 0.0001805 | 1.531 | 1.314 | 1.144 | 1.006 | 0.894 | 0.8 | 0.721 | 0.654 | –
x1 = 0.0003599 | 1.533 | 1.317 | 1.148 | 1.008 | 0.896 | 0.802 | 0.723 | 0.655 | –
x1 = 0.0005394 | 1.538 | 1.321 | 1.15 | 1.011 | 0.898 | 0.804 | 0.724 | 0.656 | –
x1 = 0.0007199 | 1.541 | 1.323 | 1.152 | 1.013 | 0.899 | 0.805 | 0.725 | 0.658 | –
x1 = 0.0008996 | 1.545 | 1.327 | 1.156 | 1.015 | 0.902 | 0.807 | 0.728 | 0.659 | –
x1 = 0.001079 | 1.547 | 1.329 | 1.158 | 1.018 | 0.904 | 0.809 | 0.729 | 0.661 | –
x1 = 0.001351 | 1.554 | 1.335 | 1.163 | 1.023 | 0.908 | 0.813 | 0.732 | 0.664 | –
x1 = 0.001799 | 1.563 | 1.344 | 1.17 | 1.029 | 0.914 | 0.817 | 0.736 | 0.667 | –
x1 = 0.87 | – | – | – | – | – | – | – | – | 23
x1 = 0.9302 | – | – | – | – | – | – | – | – | 24
x1 = 0.9756 | – | – | – | – | – | – | – | – | 32
x1 = 1 | – | – | – | – | – | – | – | – | 36
